Experimental data from patent publication US4226610A, “Herbicidal compounds, preparation thereof and herbicides containing the same” (Meiji Selka Kaisha, Ltd., priority 1978, dated 1980).
Where a name gives a salt, the structure may show the parent alone.

What was measured:
water hyacinth = experiment: Experiment 5 foliar application to water hyacinths; type: in vivo, Eichhornia crassipes Solms; design: key to Killing index: 0 = no effect, 5 = death; conditions: for Reproduction-inhibiting effect: 3 months; for Killing index: 21 days
Source text: (§1) The detail of the assessment made in the following Experiments of the invention was as follows:
(§2) Four months after treatment, evaluation was made for inhibition of reproduction expressed in terms of symbols ranging from (-) to (+++) where (-) means no reproduction, namely complete suppression of reproduction, (±) remarkable suppression of reproduction; (+) considerable suppression of reproduction; (++) medium supprestion of reproduction; and (+++) no suppression of reproduction.
Water was placed in 20 cm.×30 cm. plastic vessels and a liquid fertilizer was added thereto. Two water hyacinths were floated in each vessel.
0.1 or 0.2% aqueous solutions of each of the compounds of the invention listed in Table 7 were sprayed by foliar application in an amount of 100 liter per 10 are. As a surfactant, 0.1% of octylphenyl polyoxyethanol was added.
The killing index (0, no effect; 5, death) after 21 days and 3 months, and the reproduction-inhibiting effect (-, no reproduction; +++, maximum reproduction) after 3 months were determined.

manna grass = experiment: Experiment 1 foliar application to naturally growing weeds; type: in vivo, Digitaria adsceudes Henr.; conditions: 2 months, monosodium salt
Source text: as §1, §2
(§3) The compounds of the invention and other compounds for comparison listed in Table 3 were diluted to prescribed concentrations and sprayed to naturally growing weeds by foliar application in an amount of 150 liter per 10 are.
(§4) 0.1% of octylphenyl polyoxyethanol was added as a surfactant.
(§5) The killing index (0, no effect, 5, death) after 21 days, and the reproduction-inhibiting effect (-, no reproduction; +++, maximum reproduction) after 2 months (manna grass and cockspar grass) and 4 months (other weeds) were determined.

cockspar grass = experiment: as above; type: in vivo, Echinochloa Crusgalli P. Beauv.; conditions: 2 months, monosodium salt
Source text: as §1, §2, §3, §4, §5

yabugarashi = experiment: as above; type: in vivo, Cayratia japonica Houtt.; conditions: 4 months, monosodium salt
Source text: as §1, §2, §3, §4, §5

purple nutsedge = experiment: as above; type: in vivo, Cyperus rotundus L.; conditions: 4 months, monosodium salt
Source text: as §1, §2, §3, §4, §5

warunasubi = experiment: as above; type: in vivo, Solanum carolinensis L.; conditions: 4 months, monosodium salt
Source text: as §1, §2, §3, §4, §5

hedge bindweed = experiment: as above; type: in vivo, Calystegis hederacea Wall.; conditions: 4 months, monosodium salt
Source text: as §1, §2, §3, §4, §5

white clover = experiment: as above; type: in vivo, Trifolium repens L.; conditions: monosodium salt; for Reproduction-inhibiting effect: 4 months; for Killing index of Upperground parts: 21 days
Source text: as §1, §2, §3, §4, §5

azumanezasa = experiment: as above; type: in vivo, Pleioblastus Chino Makino; conditions: 4 months
Source text: as §1, §2, §3, §4, §5

chigaya = experiment: as above; type: in vivo, Imperata cylindrica Beauv.; conditions: 4 months
Source text: as §1, §2, §3, §4, §5

kumaichigo = experiment: Experiment 2 foliar application in Japanese cypress afforested land; type: in vivo, Rubus crataegifolius Bunge; conditions: 0.25%; after 30 days; monosodium salt
Protocol: as §1
The compounds of the invention and other compounds listed in Table 4. were diluted to prescribed concentrations and sprayed to shrubs by foliar application in a Japanese cypress afforested land in an amount of 150 liter per 10 are.
After 30 days and 3 months, the killing index (0, no effect; 5, death) was determined.
The heights of plants were 50-70 cm. for Japanese cypress, about 50 cm. for chestnut, 50-90 cm. for miyakozasa, about 100 cm. for eulalia and 70-100 cm. for kumaichigo, respectively.

Japanese bush cranberry = experiment: Experiment 3 foliar application to naturally growing shrubs; type: in vivo, Viburnum dilatatum Thunb.; conditions: after 3 months
Source text: as §1, §2
(§6) The compounds of the invention and other compounds listed in Table 5. were diluted to prescribed concentrations and sprayed onto naturally growing shrubs by foliar application in an amount of 150 liter per 10 are.
(§7) 0.1% of octylphenyl polyoxyethanol was added as the surfactant. The killing index (0, no effect; 5, death) after 1 month and 3 months, and the reproduction-inhibiting effect (-, no reproduction; +++, maximum reproduction) after 3 months were determined.

kiichigo = experiment: as above; type: in vivo, Rubus palmatsu Thunb. forma coptophyllus Makino; conditions: after 3 months
Source text: as §1, §2, §6, §7

Japanese prickly ash = experiment: as above; type: in vivo, Xanthoxylum piperitum DC.; conditions: after 3 months
Source text: as §1, §2, §6, §7

lace shrub = experiment: as above; type: in vivo, Stephanandra incisa Zabel; conditions: after 3 months
Source text: as §1, §2, §6, §7

yamazakura = experiment: as above; type: in vivo, Prunus donarium Sieb. var. spontanae Makino; conditions: after 3 months
Source text: as §1, §2, §6, §7

torch azalea = experiment: as above; type: in vivo, Rhododendoron Kaempferi Planch.; conditions: after 3 months
Source text: as §1, §2, §6, §7

oak = experiment: as above; type: in vivo, Quercus serrata Thunb; conditions: after 3 months
Source text: as §1, §2, §6, §7

CP(=O)(O)CC[C@H](N)C(=O)O [L-AMPB diammonium salt]
Reproduction-inhibiting effect (water hyacinth; 0.1%): ± | Reproduction-inhibiting effect (water hyacinth; 0.2%): -

CP(=O)(O)CCC(N)C(=O)O (racemic) [DL-AMPB monoisopropylammonium salt]
Reproduction-inhibiting effect (water hyacinth; 0.1%): ++ | Reproduction-inhibiting effect (water hyacinth; 0.2%): ±

C[C@H](NC(=O)[C@H](C)NC(=O)[C@@H](N)CCP(C)(=O)O)C(=O)O [SF-1293 dipotassium salt]
Reproduction-inhibiting effect (water hyacinth; 0.1%): + | Reproduction-inhibiting effect (water hyacinth; 0.2%): - | Killing index (water hyacinth; 0.2%): 4.5

C[C@H](NC(=O)[C@H](C)NC(=O)[C@@H](N)CCP(C)(=O)O)C(=O)O [SF-1293 monodiisopropylammonium salt]
Reproduction-inhibiting effect (water hyacinth; 0.1%): + | Reproduction-inhibiting effect (water hyacinth; 0.2%): - | Killing index (water hyacinth; 0.2%): 4.5

CP(=O)(O)CC[C@H](N)C(=O)O [L-AMPB monodiethylammonium salt]
Reproduction-inhibiting effect (water hyacinth; 0.1%): ± | Reproduction-inhibiting effect (water hyacinth; 0.2%): -

CP(=O)(O)CC[C@H](N)C(=O)O [L-AMPB mono-n-butylammonium salt]
Reproduction-inhibiting effect (water hyacinth; 0.1%): ± | Reproduction-inhibiting effect (water hyacinth; 0.2%): -

CP(=O)(O)CCC(N)C(=O)O (racemic) [DL-AMPB disodium salt]
Reproduction-inhibiting effect (water hyacinth; 0.1%): ++ | Reproduction-inhibiting effect (water hyacinth; 0.2%): ±

C[C@H](NC(=O)[C@H](C)NC(=O)[C@@H](N)CCP(C)(=O)O)C(=O)O [SF-1293 mono-n-butylammonium salt]
Reproduction-inhibiting effect (water hyacinth; 0.1%): + | Reproduction-inhibiting effect (water hyacinth; 0.2%): - | Killing index (water hyacinth; 0.2%): 4.5

C[C@H](NC(=O)[C@H](C)NC(=O)[C@@H](N)CCP(C)(=O)O)C(=O)O [monosodium salt]
Reproduction-inhibiting effect (manna grass; 0.05%): +++ | Reproduction-inhibiting effect (manna grass; 0.1%): ++ | Reproduction-inhibiting effect (manna grass; 0.2%): ± | Reproduction-inhibiting effect (cockspar grass; 0.05%): +++ | Reproduction-inhibiting effect (cockspar grass; 0.1%): ++ | Reproduction-inhibiting effect (cockspar grass; 0.2%): ± | Reproduction-inhibiting effect (yabugarashi; 0.05%): +++ | Reproduction-inhibiting effect (yabugarashi; 0.1%): ++ | Reproduction-inhibiting effect (yabugarashi; 0.2%): ± | Reproduction-inhibiting effect (purple nutsedge; 0.05%): +++ | Reproduction-inhibiting effect (purple nutsedge; 0.1%): +++ | Reproduction-inhibiting effect (purple nutsedge; 0.2%): + | Reproduction-inhibiting effect (warunasubi; 0.05%): +++ | Reproduction-inhibiting effect (warunasubi; 0.1%): +++ | Reproduction-inhibiting effect (warunasubi; 0.2%): + | Reproduction-inhibiting effect (hedge bindweed; 0.05%): +++ | Reproduction-inhibiting effect (hedge bindweed; 0.1%): +++ | Reproduction-inhibiting effect (hedge bindweed; 0.2%): +++ | Reproduction-inhibiting effect (white clover; 0.05%): +++ | Killing index of Upperground parts (white clover; 0.05%): 1.5 | Reproduction-inhibiting effect (white clover; 0.1%): +++ | Killing index of Upperground parts (white clover; 0.1%): 3.5 | Reproduction-inhibiting effect (white clover; 0.2%): + | Reproduction-inhibiting effect (azumanezasa; 0.05%, monosodium salt): +++ | Reproduction-inhibiting effect (azumanezasa; 0.1%, monosodium salt): + | Reproduction-inhibiting effect (azumanezasa; 0.2%): - | Reproduction-inhibiting effect (chigaya; 0.1%, monosodium salt): ++ | Reproduction-inhibiting effect (chigaya; 0.2%): - | Killing index (kumaichigo): 4.5 | Reproduction-inhibiting (Japanese bush cranberry; 0.05%, monosodium salt): +++ | Reproduction-inhibiting (Japanese bush cranberry; 0.1%, monosodium salt): + | Reproduction-inhibiting (Japanese bush cranberry; 0.2%): - | Reproduction-inhibiting (kiichigo; 0.05%, monosodium salt): +++ | Reproduction-inhibiting (kiichigo; 0.1%, monosodium salt): + | Reproduction-inhibiting (kiichigo; 0.2%): - | Reproduction-inhibiting (Japanese prickly ash; 0.05%, monosodium salt): +++ | Reproduction-inhibiting (Japanese prickly ash; 0.1%, monosodium salt): + | Reproduction-inhibiting (Japanese prickly ash; 0.2%): - | Reproduction-inhibiting (lace shrub; 0.05%, monosodium salt): +++ | Reproduction-inhibiting (lace shrub; 0.1%, monosodium salt): ++ | Reproduction-inhibiting (lace shrub; 0.2%): - | Reproduction-inhibiting (yamazakura; 0.05%, monosodium salt): +++ | Reproduction-inhibiting (yamazakura; 0.1%, monosodium salt): ++ | Reproduction-inhibiting (yamazakura; 0.2%): - | Reproduction-inhibiting (torch azalea; 0.05%, monosodium salt): +++ | Reproduction-inhibiting (torch azalea; 0.1%, monosodium salt): ++ | Reproduction-inhibiting (torch azalea; 0.2%): - | Reproduction-inhibiting (oak; 0.05%, monosodium salt): +++ | Reproduction-inhibiting (oak; 0.1%, monosodium salt): ++ | Reproduction-inhibiting (oak; 0.2%): - | Reproduction-inhibiting effect (water hyacinth; 0.1%, listed as SF-1293 monosodium salt, monosodium salt): + | Reproduction-inhibiting effect (water hyacinth; 0.2%): - | Killing index (water hyacinth; 0.2%, listed as SF-1293 monosodium salt, monosodium salt): 4.5

C[C@H](NC(=O)[C@H](C)NC(=O)[C@@H](N)CCP(C)(=O)O)C(=O)O [SF-1293, (L-2-amino-4-methylphosphinobutyryl)-L-alanyl-L-alanine]
Reproduction-inhibiting effect (water hyacinth; 0.1%): + | Reproduction-inhibiting effect (water hyacinth; 0.2%): - | Killing index (water hyacinth; 0.2%): 4.5

CP(=O)(O)CC[C@H](N)C(=O)O [L-AMPB, L-2-amino-4-methylphosphinobutanoic acid]
Reproduction-inhibiting effect (water hyacinth; 0.1%): ± | Reproduction-inhibiting effect (water hyacinth; 0.2%): -

CP(=O)(O)CC[C@H](N)C(=O)O [L-AMPB monopotassium salt]
Reproduction-inhibiting effect (water hyacinth; 0.1%): ± | Reproduction-inhibiting effect (water hyacinth; 0.2%): -

CP(=O)(O)CCC(N)C(=O)O (racemic) [DL-AMPB dipotassium salt]
Reproduction-inhibiting effect (water hyacinth; 0.1%): ++ | Reproduction-inhibiting effect (water hyacinth; 0.2%): ±

CP(=O)(O)CC[C@H](N)C(=O)O [L-AMPB dipotassium salt]
Reproduction-inhibiting effect (water hyacinth; 0.1%): ± | Reproduction-inhibiting effect (water hyacinth; 0.2%): -

CP(=O)(O)CCC(N)C(=O)O (racemic) [DL-AMPB monopotassium salt]
Reproduction-inhibiting effect (water hyacinth; 0.1%): ++ | Reproduction-inhibiting effect (water hyacinth; 0.2%): ±

CP(=O)(O)CCC(N)C(=O)O (racemic) [DL-AMPB, DL-2-amino-4-methylphosphinobutanoic acid]
Reproduction-inhibiting effect (water hyacinth; 0.1%): ++ | Reproduction-inhibiting effect (water hyacinth; 0.2%): ±

C[C@H](NC(=O)[C@H](C)NC(=O)[C@@H](N)CCP(C)(=O)O)C(=O)O [SF-1293 monopotassium salt]
Reproduction-inhibiting effect (water hyacinth; 0.1%): + | Reproduction-inhibiting effect (water hyacinth; 0.2%): - | Killing index (water hyacinth; 0.2%): 4.5

C[C@H](NC(=O)[C@H](C)NC(=O)[C@@H](N)CCP(C)(=O)O)C(=O)O [SF-1293 disodium salt]
Reproduction-inhibiting effect (water hyacinth; 0.1%): + | Reproduction-inhibiting effect (water hyacinth; 0.2%): - | Killing index (water hyacinth; 0.2%): 4.5

C[C@H](NC(=O)[C@H](C)NC(=O)[C@@H](N)CCP(C)(=O)O)C(=O)O [SF-1293 diammonium salt]
Reproduction-inhibiting effect (water hyacinth; 0.1%): + | Reproduction-inhibiting effect (water hyacinth; 0.2%): - | Killing index (water hyacinth; 0.2%): 4.5

CP(=O)(O)CCC(N)C(=O)O (racemic) [DL-AMPB monodiethylammonium salt]
Reproduction-inhibiting effect (water hyacinth; 0.1%): ++ | Reproduction-inhibiting effect (water hyacinth; 0.2%): ±

CP(=O)(O)CC[C@H](N)C(=O)O [L-AMPB monoisopropylammonium salt]
Reproduction-inhibiting effect (water hyacinth; 0.1%): ± | Reproduction-inhibiting effect (water hyacinth; 0.2%): -

CP(=O)(O)CCC(N)C(=O)O (racemic) [DL-AMPB diammonium salt]
Reproduction-inhibiting effect (water hyacinth; 0.1%): ++ | Reproduction-inhibiting effect (water hyacinth; 0.2%): ±

CP(=O)(O)CC[C@H](N)C(=O)O [L-AMPB disodium salt]
Reproduction-inhibiting effect (water hyacinth; 0.1%): ± | Reproduction-inhibiting effect (water hyacinth; 0.2%): -

CP(=O)(O)CCC(N)C(=O)O (racemic) [DL-AMPB mono-n-butylammonium salt]
Reproduction-inhibiting effect (water hyacinth; 0.1%): ++ | Reproduction-inhibiting effect (water hyacinth; 0.2%): ±

C[C@H](NC(=O)[C@H](C)NC(=O)[C@@H](N)CCP(C)(=O)O)C(=O)O [SF-1293 monodiethylammonium salt]
Reproduction-inhibiting effect (water hyacinth; 0.1%): + | Reproduction-inhibiting effect (water hyacinth; 0.2%): - | Killing index (water hyacinth; 0.2%): 4.5
